What was measured:
Cav2.2 channel = Cav2.2 channel (Homo sapiens, UniProt Q00975); assay: cell-based; format: cell-based
[1] = test system: coordinated locomotion in mice; conditions: mouse, in vivo
tremor in mice = conditions: mouse, in vivo
[2] = format: physicochemical; conditions: pH 7.4
in vitro = conditions: human, serum

Sequence of Cav2.2 channel (Q00975 whole entry, looked up): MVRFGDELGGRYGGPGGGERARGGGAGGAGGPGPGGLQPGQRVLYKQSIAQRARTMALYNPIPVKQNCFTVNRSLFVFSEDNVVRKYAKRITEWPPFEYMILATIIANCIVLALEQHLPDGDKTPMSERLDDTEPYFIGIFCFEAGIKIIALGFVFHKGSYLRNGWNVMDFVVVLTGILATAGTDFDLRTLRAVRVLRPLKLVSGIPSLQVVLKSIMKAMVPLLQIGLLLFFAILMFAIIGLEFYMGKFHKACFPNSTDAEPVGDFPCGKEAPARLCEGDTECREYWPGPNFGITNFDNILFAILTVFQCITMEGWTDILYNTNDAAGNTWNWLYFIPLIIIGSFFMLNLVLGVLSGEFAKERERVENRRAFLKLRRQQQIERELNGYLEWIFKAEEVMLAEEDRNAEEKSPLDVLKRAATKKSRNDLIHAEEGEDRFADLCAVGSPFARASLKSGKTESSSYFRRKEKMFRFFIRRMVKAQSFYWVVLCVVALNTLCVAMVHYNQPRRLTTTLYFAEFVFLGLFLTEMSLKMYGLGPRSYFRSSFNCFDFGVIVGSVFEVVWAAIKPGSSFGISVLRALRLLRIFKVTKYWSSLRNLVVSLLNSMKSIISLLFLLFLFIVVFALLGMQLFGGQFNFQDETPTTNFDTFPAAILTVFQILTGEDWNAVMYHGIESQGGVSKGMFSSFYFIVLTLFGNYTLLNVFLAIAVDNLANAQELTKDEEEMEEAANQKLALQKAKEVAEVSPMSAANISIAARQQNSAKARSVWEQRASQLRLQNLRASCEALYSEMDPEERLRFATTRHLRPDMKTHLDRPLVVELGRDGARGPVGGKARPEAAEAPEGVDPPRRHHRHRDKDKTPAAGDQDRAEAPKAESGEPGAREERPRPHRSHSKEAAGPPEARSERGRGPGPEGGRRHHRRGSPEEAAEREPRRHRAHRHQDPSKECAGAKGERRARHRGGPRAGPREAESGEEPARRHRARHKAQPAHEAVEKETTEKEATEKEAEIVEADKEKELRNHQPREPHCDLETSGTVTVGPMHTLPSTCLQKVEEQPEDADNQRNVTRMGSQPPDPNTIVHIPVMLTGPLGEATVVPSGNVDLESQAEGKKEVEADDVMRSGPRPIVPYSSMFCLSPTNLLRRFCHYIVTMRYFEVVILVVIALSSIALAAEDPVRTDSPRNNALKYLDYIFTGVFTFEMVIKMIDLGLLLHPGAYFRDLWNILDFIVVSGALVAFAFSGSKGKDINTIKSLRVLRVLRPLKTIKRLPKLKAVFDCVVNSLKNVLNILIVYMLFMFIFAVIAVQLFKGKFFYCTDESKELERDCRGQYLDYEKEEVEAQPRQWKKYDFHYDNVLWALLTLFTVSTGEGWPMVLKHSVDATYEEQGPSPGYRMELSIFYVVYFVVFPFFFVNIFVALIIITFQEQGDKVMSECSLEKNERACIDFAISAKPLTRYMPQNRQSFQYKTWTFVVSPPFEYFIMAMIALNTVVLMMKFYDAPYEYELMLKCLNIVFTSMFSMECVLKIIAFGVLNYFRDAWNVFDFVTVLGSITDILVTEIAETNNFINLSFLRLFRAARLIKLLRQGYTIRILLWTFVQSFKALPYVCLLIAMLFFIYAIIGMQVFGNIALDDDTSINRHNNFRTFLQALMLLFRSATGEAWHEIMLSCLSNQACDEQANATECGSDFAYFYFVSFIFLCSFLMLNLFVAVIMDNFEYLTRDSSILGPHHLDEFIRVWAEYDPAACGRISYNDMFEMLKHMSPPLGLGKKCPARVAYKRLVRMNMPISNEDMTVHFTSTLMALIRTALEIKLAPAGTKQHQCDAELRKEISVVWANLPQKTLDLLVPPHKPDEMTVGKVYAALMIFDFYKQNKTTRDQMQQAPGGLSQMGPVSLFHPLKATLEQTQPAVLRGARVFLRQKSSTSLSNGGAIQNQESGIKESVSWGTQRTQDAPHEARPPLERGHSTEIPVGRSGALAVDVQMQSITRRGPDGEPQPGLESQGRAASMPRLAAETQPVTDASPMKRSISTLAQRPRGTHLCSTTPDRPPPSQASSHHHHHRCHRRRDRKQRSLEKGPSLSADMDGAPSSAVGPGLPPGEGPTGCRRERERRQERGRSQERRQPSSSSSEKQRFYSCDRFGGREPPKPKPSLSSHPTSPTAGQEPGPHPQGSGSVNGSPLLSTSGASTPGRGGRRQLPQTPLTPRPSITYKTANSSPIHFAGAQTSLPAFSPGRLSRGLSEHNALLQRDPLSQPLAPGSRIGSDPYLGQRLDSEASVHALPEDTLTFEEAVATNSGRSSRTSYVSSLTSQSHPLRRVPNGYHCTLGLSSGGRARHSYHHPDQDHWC

## CSCC[C@@H]1NC(=O)[C@H](CC(C)C)NC(=O)[C@H](CCCNC(=N)N)NC(=O)[C@H](CO)NC(=O)[C@@H]2CSSC[C@@H]3NC(=O)[C@H](CO)NC(=O)CNC(=O)[C@H]([C@@H](C)O)NC(=O)[C@H](CSSC[C@H](N)C(=O)N[C@@H](CCCCN)C(=O)NCC(=O)N[C@@H](CCCCN)C(=O)NCC(=O)N[C@@H](C)C(=O)N[C@@H](CCCCN)C(=O)N2)NC(=O)[C@H](CSSC[C@@H](C(N)=O)NC(=O)[C@H](CCCCN)NC(=O)CNC(=O)[C@H](CO)NC(=O)[C@H](CCCNC(=N)N)NC3=O)NC(=O)[C@H](CC(=O)O)NC(=O)[C@H](Cc2ccc(O)cc2)NC1=O [MVIIA, ω-conotoxin MVIIA, reference compound]
Cav2.2 channel
  reduction of ICa amplitude: 100.00 ± 0.00%
[1]
  effect on coordinated locomotion: significant at 30–60 min and gradually decreased from 2 to 4 h
Tremor in mice
  tremor intensity (4-point scale 0-3): highest tremor intensity at 30–60 min, after which it gradually decreased
[2]
  particle size (dynamic light scattering): 48.74 ± 16.07 nm

## CCCCCCCCCCCCCC(=O)N[C@H]1CSSC[C@@H]2NC(=O)[C@@H]3CSSC[C@@H](C(N)=O)NC(=O)[C@H](CCCCN)NC(=O)CNC(=O)[C@H](CO)NC(=O)[C@H](CCCNC(=N)N)NC(=O)[C@H](CSSC[C@H](NC(=O)[C@H](CCCCN)NC(=O)[C@H](C)NC(=O)CNC(=O)[C@H](CCCCN)NC(=O)CNC(=O)[C@H](CCCCN)NC1=O)C(=O)N[C@@H](CO)C(=O)N[C@@H](CCCNC(=N)N)C(=O)N[C@@H](CC(C)C)C(=O)N[C@@H](CCSC)C(=O)N[C@@H](Cc1ccc(O)cc1)C(=O)N[C@@H](CC(=O)O)C(=O)N3)NC(=O)[C@H](CO)NC(=O)CNC(=O)[C@H]([C@@H](C)O)NC2=O [Myr-MVIIA]
In vitro
  remaining at 24 h: 67.8%
Cav2.2 channel
  IC50: 0.0921 µM
  reduction of ICa amplitude: 66.83 ± 0.16%
[1]
  effect on coordinated locomotion: did not affect coordinated locomotion
Tremor in mice
  tremor intensity (4-point scale 0-3): no tremor symptoms
